Assay results reported in patent US11400168B2, “Methods and systems for noninvasive control of brain cells and related vectors and compositions” (CALIFORNIA INSTITUTE OF TECHNOLOGY, priority 2017, dated 2022).

Experiments:
[1] = Cued conditioning acquisition (freezing during third tone of training); assay type: in vivo; details: ATAC, wild-type and AAV without FUS-BBBO mice
Description: (§1) Behavioral studies for fear conditioning were performed in sound-attenuated fear conditioning chambers (30×25×25 cm, Med Associates). Animals were trained and tested for context fear in Context A, which comprised a staggered wire grid floor, white light, 5% acetic acid for scent and no background noise. Locomotor testing was performed in Context B, which was differentiated from Context A by chamber shape, floor, illumination, odor, background noise and room location. Animal activity was recorded and quantified using Video Freeze software (Med Associates). For cued training, the tone was 80 dB and 30s.
Mice were injected with CNO (10 mg/kg, IP) or saline (IP), and after 40-60 minutes underwent context and cued fear conditioning in Context A. This timeframe was chosen to allow CNO to reach its pharmacokinetic peak[88]. A 3-minute initial baseline period was followed by 3×30-s presentations of a tone co-terminated with a 2-s foot shock (0.7 mA), with inter-trial interval of 60 s. After the trials, the mice remained in the context for an additional 60 s, after which they were transported back into the vivarium. After 24 h, mice were placed in Context A to record context fear for the duration of training (8 min. and 40 s). […]

hM4Di = target: T1, hM4Di (Homo sapiens, UniProt P08173, A203G/Y113C); test: Context fear conditioning and recall (freezing in Context A) with hM4Di targeted to ventral and dorsal hippocampus; assay type: in vivo, mice
T1 construct: host or cells: mouse (C57BL6J) hippocampal excitatory neurons transduced in vivo with AAV9
T1 sequence (P08173 1-479 Y113C/A203G): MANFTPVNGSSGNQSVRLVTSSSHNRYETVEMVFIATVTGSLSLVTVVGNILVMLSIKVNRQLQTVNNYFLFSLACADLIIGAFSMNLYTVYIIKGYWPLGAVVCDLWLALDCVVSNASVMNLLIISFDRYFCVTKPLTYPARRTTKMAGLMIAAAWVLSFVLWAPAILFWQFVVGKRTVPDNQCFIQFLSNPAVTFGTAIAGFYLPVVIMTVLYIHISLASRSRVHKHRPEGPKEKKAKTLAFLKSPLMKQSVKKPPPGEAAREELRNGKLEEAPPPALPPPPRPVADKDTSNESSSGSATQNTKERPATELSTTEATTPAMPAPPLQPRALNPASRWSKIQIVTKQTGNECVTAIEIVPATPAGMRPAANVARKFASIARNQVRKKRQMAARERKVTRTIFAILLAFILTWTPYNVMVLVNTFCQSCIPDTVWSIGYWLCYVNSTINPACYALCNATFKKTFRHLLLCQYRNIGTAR
Description: as §1
Mice were injected with CNO (10 mg/kg, IP) or saline (IP), and after 40-60 minutes underwent context and cued fear conditioning in Context A. This timeframe was chosen to allow CNO to reach its pharmacokinetic peak[88]. A 3-minute initial baseline period was followed by 3×30-s presentations of a tone co-terminated with a 2-s foot shock (0.7 mA), with inter-trial interval of 60 s. After the trials, the mice remained in the context for an additional 60 s, after which they were transported back into the vivarium. After 24 h, mice were placed in Context A to record context fear for the duration of training (8 min. and 40 s).
Mice were recorded using automated near-infrared video tracking in the fear conditioning chamber using VideoFreeze software. Mouse motion was measured using the activity score, from a video recording at 30 frames/s, with the motion threshold set at 18 activity units (standard value set in software). Freezing was defined as an activity score below 18 units for at least 1 s. Average freezing in the context test was scored over the whole trial. Due to automated data acquisition and evaluation, no blinding was necessary.
mice were excluded from statistical analysis if their histologically determined DREADD expression was below 30% of cell bodies in dorsal CA3 region of the hippocampus. This threshold was chosen based on previous studies showing that behavioral effects generally require modulation of at least 30% of the neurons in a targeted region[89, 90] and dorsal CA3 being the most robustly transfected hippocampus region. The resulting analyzed groups had identical levels of expression (55.1% for Saline and 60.5% for CNO groups, p=0.26, heteroscedastic, two-tailed, t-test). […] Variability in gene expression may have been due to variability in intravenous injections of virus during the FUS-BBBO procedure, since we found no difference between these mice in T1 MRI signal enhancement post FUS-BBBO (FIG. 15, panel b).
To assess the ability of ATAC to inhibit targeted neurons, and to test the functionality of this technology in a behavioral paradigm, FUS-BBBO was used to target inhibitory DREADDs (hM4Di) to ventral and dorsal hippocampus (FIG. 5, panel a), and the impact of CNO administration on the formation of contextual fear memories was assessed. This well-established behavioral paradigm has been used in studies of anxiety, phobias, PTSD and fear circuitry[99]° [100]. Fear conditioning has also served as a testing ground for other novel neuromodulatory techniques. Since the hippocampus plays an essential role in memory formation, it is hypothesized that inhibiting it noninvasively using the ATAC strategy would reduce the ability of mice to form fear memories.
Two groups of control mice were either completely untreated or received intravenous virus without FUS-BBBO. After 6-8 weeks, the mice underwent a fear conditioning protocol (FIG. 5, panel a). In this protocol, the mice are placed in a unique environment (defined by chamber shape, lighting, smell and sound; Context A in FIG. 5, panel a) while receiving three electric foot shocks, causing them to associate this environment with the noxious stimulus in a process known as context fear conditioning. […]

hM3Dq [2] = target: T2, hM3Dq (Homo sapiens, UniProt P20309, A239G/Y149C); test: c-Fos activation in dorsal CA3 of hippocampus after CNO in mice expressing hM3Dq-mCherry (ATAC); assay type: in vivo; design: host or cells: mouse (C57BL6J) hippocampal excitatory neurons transduced in vivo with AAV9; details: CNO 1 mg/kg IP, 2.5 h, 22 weeks after FUS-BBBO, n=6
T2 sequence (P20309 whole entry Y149C/A239G, the tested form may be a part): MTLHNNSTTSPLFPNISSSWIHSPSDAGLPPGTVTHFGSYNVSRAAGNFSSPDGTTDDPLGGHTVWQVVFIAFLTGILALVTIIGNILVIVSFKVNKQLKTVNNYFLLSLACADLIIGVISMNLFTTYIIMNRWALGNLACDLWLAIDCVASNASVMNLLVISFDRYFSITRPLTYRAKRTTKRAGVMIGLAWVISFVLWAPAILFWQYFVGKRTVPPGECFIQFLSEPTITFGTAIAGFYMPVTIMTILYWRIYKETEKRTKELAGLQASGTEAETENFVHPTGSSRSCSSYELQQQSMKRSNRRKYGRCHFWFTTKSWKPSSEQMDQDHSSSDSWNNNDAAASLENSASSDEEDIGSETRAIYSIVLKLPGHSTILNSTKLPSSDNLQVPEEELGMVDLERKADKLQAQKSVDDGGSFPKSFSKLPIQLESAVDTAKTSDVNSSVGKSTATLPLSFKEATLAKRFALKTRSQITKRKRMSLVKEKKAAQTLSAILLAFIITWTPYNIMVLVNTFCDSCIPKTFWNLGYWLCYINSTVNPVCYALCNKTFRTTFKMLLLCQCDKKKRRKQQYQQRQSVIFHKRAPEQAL
Description: C57BL6J male mice of 13 weeks of age underwent FUS-BBBO to administer AAV9 carrying hM3Dq-mCherry into the hippocampus. Subsequently, mice were housed singly to reduce background C-fos expression. After 22 weeks of expression, mice received an IP injection of 1 mg/kg CNO in sterile saline, and were returned to home cages. After 150 minutes, mice were anesthetized using Ketamine/Xylazine solution (80 mg/kg and 10 mg/kg, respectively, in PBS) and perfused with a cold PBS/Heparin (10 U/ml), and immediately afterwards with 10% Neutral Buffered Formalin (NBF). Their brains were extracted and post-fixed in 10% NBF for at least 24 hours. Brain sections (50 μm) were obtained using a VF-300 compresstome (Precisionary Instruments). […]
(§2) For activation of hippocampus, the histological evaluation was performed by an observer blinded to the identity (hM3Dq positive, or negative) of granular layer nuclei in dCA3. The expression status of the neurons was determined after the scoring of c-Fos positivity. The activation of TH neurons was evaluated by an observer blinded to the presence of FUS-BBBO targeting at a given site. […] A three-dimensional reference atlas[82] was used to choose the appropriate regions and brain sections for each mouse and contralateral and ipsilateral controls to ascertain consistency in choice of analyzed sections. […]

hM3Dq [3] = target: T2, hM3Dq; test: Intersectional ATAC: c-Fos activation of TH-positive neurons in SNc/VTA of TH-CRE mice; assay type: in vivo, TH-CRE transgenic mice; design: expressed in transfected cells; host or cells: TH-positive neurons of SNc/VTA in TH-CRE transgenic mice, transduced in vivo with AAV9; details: CNO 1 mg/kg IP, 2 h; 9 weeks expression; n=5 mice
Description: After FUS-BBBO, the mice were imaged again using the same FLASH sequence to confirm opening of the BBB and appropriate targeting. Immediately afterwards, mice were placed in the home cage for recovery. The TH-CRE animals, aged 18 weeks, were subjected to FUS-BBBO using the same protocol, and using the same dose of AAV9, as for C57BL6J mice. All TH-CRE animals were females.
as §2, with “site. TH-CRE mice expressed hM3Dq for 9 weeks after FUS-BBBO, and then were given 1 mg/kg CNO. After 2 h, they were anesthetized with ketamine/xylazine (80/10 mg/kg in PBS) and perfused using cold heparine/PBS (10 u) and then 10% NBF.” for “site.”

[4] = Exploratory behavior in novel environment (Context B, open field test); assay type: in vivo; details: all groups of mice (ATAC, AAV without FUS-BBBO, wild-type), 3 minutes
Description: as §1
Between 30 and 45 minutes after the context fear test, mice were transported to another room, placed in Context B and allowed to explore the chamber for 3 minutes while their activity was recorded. Due to automated data acquisition and evaluation, no blinding was necessary.
One day after fear conditioning, the mice were placed in a novel environment (Context B in FIG. 5, panel a), which they were allowed to explore freely for 3 minutes. The exploratory behavior of all groups of mice was likewise unaffected by CNO administration (FIG. 5, panel e-g).

**Q.** What does the source list for C[N+]1([O-])CCN(C2=Nc3cc(Cl)ccc3Nc3ccccc32)CC1 [CNO, clozapine-N-oxide]?
**A.** cued freezing at the end of the training session [1]: unaffected; time spent freezing in fear recall context (hM4Di; ATAC mice (hM4Di), CNO 10 mg/kg IP 40-60 min before conditioning, recall 24 h later, saline 53.2%): 21.8%; context fear (freezing) without excluding mice with expression below 30% (hM4Di; ATAC mice treated with CNO, all mice, saline 53.2%): 34%; reduction in fear memory versus saline (hM4Di; ATAC mice, CNO before conditioning, n=13 and 7): more than 2 fold; context fear relative to untreated controls (hM4Di; CNO treatment alone in wild-type mice): did not result in a reduction in context fear; correlation (r) of DREADD expression in dorsal CA3 with formation of context fear memories (hM4Di; mice treated with CNO, all mice, n=11): 0.62; reduction in fear memory formation (hM4Di; single injection of CNO several weeks after FUS-BBBO): 2.4 fold; context fear relative to untreated controls (hM4Di; systemic AAV9 injection without FUS-BBBO, CNO): did not result in a reduction in context fear; likelihood of c-Fos staining, hM3Dq-positive cells versus cells not expressing hM3Dq (hM3Dq [2]): 5.8 times; increase in activation (c-Fos) among TH-positive neurons, ATAC-targeted side versus contralateral (hM3Dq [3]): 7.3 fold; exploratory behavior [4]: unaffected
